According to the NIST ThermoML archive (doi:10.1021/je060474z):

Experiment: cn = amount concentration of the nth substance listed, in mol/dm3
Conditions: 101.3 kPa, Liquid, Taylor dispersion method

OC[C@H]1O[C@@H]2O[C@H]3[C@H](O)[C@@H](O)[C@@H](O[C@H]4[C@H](O)[C@@H](O)[C@@H](O[C@H]5[C@H](O)[C@@H](O)[C@@H](O[C@H]6[C@H](O)[C@@H](O)[C@@H](O[C@H]7[C@H](O)[C@@H](O)[C@@H](O[C@H]1[C@H](O)[C@H]2O)O[C@@H]7CO)O[C@@H]6CO)O[C@@H]5CO)O[C@@H]4CO)O[C@@H]3CO [α-cyclodextrin] + O
binary diffusion coefficient [m2/s]
Conditions	c1 = 0.002	c1 = 0.004	c1 = 0.006	c1 = 0.008	c1 = 0.01
298.15 K	3.52e-10	3.5e-10	3.49e-10	3.47e-10	3.46e-10
303.15 K	4.07e-10	4.04e-10	4.03e-10	4.01e-10	3.98e-10
308.15 K	4.38e-10	4.36e-10	4.35e-10	4.34e-10	4.31e-10
312.15 K	5.02e-10	4.98e-10	4.88e-10	4.78e-10	4.72e-10
